{"source": "PubChem BioAssay AID330", "about": "(DTP/NCI, 2004)", "test_system": "P388 leukemia ip, CD2F1 mice, survival T/C", "assay": "NCI In Vivo Anticancer Drug Screen. Data for tumor model P388 Leukemia (intraperitoneal) in CD2F1 (CDF1) mice", "details": "endpoint: median survival time, higher = longer survival", "procedure,_shortened": "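Mice carrying the transplanted tumor received test compound or vehicle. Survival was recorded in each group, and the value is the treated-group measurement divided by that of the vehicle-treated control group.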", "key": {"[1]": {"details": "dose: 50.0 mg/kg/injection, schedule: Q01DX005 (ip), vehicle: Klucel (hydroxypropylcellulose) (HPC)"}, "[2]": {"details": "dose: 100.0 mg/kg/injection, schedule: Q01DX005 (ip), vehicle: Klucel (hydroxypropylcellulose) (HPC)"}, "[3]": {"details": "dose: 200.0 mg/kg/injection, schedule: Q01DX005 (ip), vehicle: Klucel (hydroxypropylcellulose) (HPC)"}, "[4]": {"details": "dose: 60.0 mg/kg/injection, schedule: Q01DX005 (ip), vehicle: saline with Tween-80"}, "[5]": {"details": "dose: 120.0 mg/kg/injection, schedule: Q01DX005 (ip), vehicle: saline with Tween-80"}, "[6]": {"details": "dose: 240.0 mg/kg/injection, schedule: Q01DX005 (ip), vehicle: saline with Tween-80"}, "[7]": {"details": "dose: 50.0 mg/kg/injection, schedule: Q01DX005 (ip), vehicle: saline with Tween-80"}, "[8]": {"details": "dose: 100.0 mg/kg/injection, schedule: Q01DX005 (ip), vehicle: saline with Tween-80"}, "[9]": {"details": "dose: 200.0 mg/kg/injection, schedule: Q01DX005 (ip), vehicle: saline with Tween-80"}, "[10]": {"details": "dose: 25.0 mg/kg/injection, schedule: Q01DX009 (ip), vehicle: saline"}, "[11]": {"details": "dose: 50.0 mg/kg/injection, schedule: Q01DX009 (ip), vehicle: saline with Tween-80"}, "[12]": {"details": "dose: 100.0 mg/kg/injection, schedule: Q01DX009 (ip), vehicle: saline with Tween-80"}, "[13]": {"details": "dose: 200.0 mg/kg/injection, schedule: Q01DX009 (ip), vehicle: saline with Tween-80"}}, "note": "Several values for one entry are separate records, joined by “and”; a condition that tells them apart may be missing. Equal values may be shown once. Toxic doses and inconclusive results are not listed.", "data": [{"smiles": "O=C(O)C1CCC[N-]1.[Cl][Pd][Cl]", "note": "(stereo unspecified)", "values": [{"measurement": "T/C", "setting": "dose: 6.25 mg/kg/injection, schedule: Q01DX009 (ip), vehicle: water", "result": "105 % of control"}, {"measurement": "T/C", "setting": "dose: 12.5 mg/kg/injection, schedule: Q01DX009 (ip), vehicle: water", "result": "96 % of control"}, {"measurement": "T/C", "setting": "dose: 25.0 mg/kg/injection, schedule: Q01DX009 (ip), vehicle: water", "result": "100 % of control"}, {"measurement": "T/C", "setting": "dose: 50.0 mg/kg/injection, schedule: Q01DX009 (ip), vehicle: water", "result": "114 % of control"}, {"measurement": "T/C", "setting": "dose: 100.0 mg/kg/injection, schedule: Q01DX009 (ip), vehicle: water", "result": "93 % of control"}]}, {"smiles": "O=C(CBr)Nc1ncc([N+](=O)[O-])s1", "values": [{"measurement": "T/C", "setting": "dose: 6.25 mg/kg/injection, schedule: Q01DX009 (ip), vehicle: Klucel (hydroxypropylcellulose) (HPC)", "result": "102 % of control"}, {"measurement": "T/C", "setting": "dose: 12.5 mg/kg/injection, schedule: Q01DX009 (ip), vehicle: Klucel (hydroxypropylcellulose) (HPC)", "result": "104 % of control"}]}, {"smiles": "OCC(O)C(O)C(O)C(O)C(O)c1nc2ccccc2[nH]1", "note": "(stereo unspecified)", "values": [{"measurement": "T/C", "setting": "[1]", "result": "98 % of control"}, {"measurement": "T/C", "setting": "[2]", "result": "102 % of control"}, {"measurement": "T/C", "setting": "[3]", "result": "100 % of control"}]}, {"smiles": "CCOC(=O)c1ccc(OCC#N)cc1", "values": [{"measurement": "T/C", "setting": "[1]", "result": "93 % of control"}, {"measurement": "T/C", "setting": "[2]", "result": "102 % of control"}, {"measurement": "T/C", "setting": "[3]", "result": "98 % of control"}]}, {"smiles": "CNC(=O)OCc1c(COC(=O)NC)c(C)n(-c2ccc3c(c2)OCO3)c1C", "values": [{"measurement": "T/C", "setting": "dose: 50.0 mg/kg/injection, schedule: Q01DX009 (ip), vehicle: Klucel (hydroxypropylcellulose) (HPC)", "result": "89 % of control"}]}, {"smiles": "Brc1ccc(-c2nc3sc(-c4ccc5c(c4)OCO5)nn3c2Br)cc1", "values": [{"measurement": "T/C", "setting": "[4]", "result": "100 % of control"}, {"measurement": "T/C", "setting": "[5]", "result": "100 % of control"}, {"measurement": "T/C", "setting": "[6]", "result": "93 % of control"}]}, {"smiles": "Cc1nc2ccc3c(ccc4nc(C)c(N=Nc5ccc(C(=N)N)cc5)c(O)c43)c2c(O)c1N=Nc1ccc(C(=N)N)cc1", "values": [{"measurement": "T/C", "setting": "[7]", "result": "114 % of control"}, {"measurement": "T/C", "setting": "[8]", "result": "116 % of control"}, {"measurement": "T/C", "setting": "[9]", "result": "116 % of control"}]}, {"smiles": "CCC(C)P(=O)(N1CC1)N1CC1", "note": "(stereo unspecified)", "values": [{"measurement": "T/C", "setting": "dose: 6.25 mg/kg/injection, schedule: Q01DX009 (ip), vehicle: saline", "result": "109 % of control"}, {"measurement": "T/C", "setting": "dose: 6.25 mg/kg/injection, schedule: Q04DX003 (ip), vehicle: saline", "result": "113 % of control"}, {"measurement": "T/C", "setting": "[10]", "result": "154 % of control"}, {"measurement": "T/C", "setting": "dose: 25.0 mg/kg/injection, schedule: Q04DX003 (ip), vehicle: saline", "result": "190 % of control"}]}, {"smiles": "NC1=NC(O)(c2ccccc2)C(O)(c2ccccc2)N1", "note": "(stereo unspecified)", "values": [{"measurement": "T/C", "setting": "dose: 25.0 mg/kg/injection, schedule: Q04DX002 (ip), vehicle: saline", "result": "98 % of control"}, {"measurement": "T/C", "setting": "dose: 50.0 mg/kg/injection, schedule: Q04DX002 (ip), vehicle: saline", "result": "97 % of control"}, {"measurement": "T/C", "setting": "dose: 100.0 mg/kg/injection, schedule: Q04DX002 (ip), vehicle: saline", "result": "98 % of control"}]}, {"smiles": "CC(=O)Nc1cc(C)ns1", "values": [{"measurement": "T/C", "setting": "[10]", "result": "101 % of control"}, {"measurement": "T/C", "setting": "dose: 50.0 mg/kg/injection, schedule: Q01DX009 (ip), vehicle: saline", "result": "109 % of control"}, {"measurement": "T/C", "setting": "dose: 100.0 mg/kg/injection, schedule: Q01DX009 (ip), vehicle: saline", "result": "101 % of control"}, {"measurement": "T/C", "setting": "dose: 200.0 mg/kg/injection, schedule: Q01DX009 (ip), vehicle: saline", "result": "89 % of control"}]}, {"smiles": "CC(CN(C)C)Oc1ccccc1NC1=C(Cl)C(=O)C(Nc2ccccc2OC(C)CN(C)C)=C(Cl)C1=O", "note": "(stereo unspecified)", "values": [{"measurement": "T/C", "setting": "dose: 10.0 mg/kg/injection, schedule: Q01DX009 (ip), vehicle: saline", "result": "108 % of control and 115 % of control"}, {"measurement": "T/C", "setting": "dose: 20.0 mg/kg/injection, schedule: Q01DX009 (ip), vehicle: saline", "result": "115 % of control and 118 % of control"}]}, {"smiles": "COc1ccc(C2CC(=O)NC2=O)cc1OC", "note": "(stereo unspecified)", "values": [{"measurement": "T/C", "setting": "[4]", "result": "96 % of control"}, {"measurement": "T/C", "setting": "[5]", "result": "92 % of control"}, {"measurement": "T/C", "setting": "[6]", "result": "97 % of control"}]}, {"smiles": "COC(=O)c1nnn(-c2ccc(Cl)cc2Cl)c1C(=O)c1ccc(Cl)c(Cl)c1", "values": [{"measurement": "T/C", "setting": "[4]", "result": "101 % of control"}, {"measurement": "T/C", "setting": "[5]", "result": "100 % of control"}, {"measurement": "T/C", "setting": "[6]", "result": "95 % of control"}]}, {"smiles": "O=NN(CCCl)C(=O)NC1[C@H](O)CCC[C@@H]1O", "note": "(stereo partly specified)", "values": [{"measurement": "T/C", "setting": "dose: 0.63 mg/kg/injection, schedule: Q01DX005 (ip), vehicle: saline", "result": "118 % of control"}, {"measurement": "T/C", "setting": "dose: 2.5 mg/kg/injection, schedule: Q01DX005 (ip), vehicle: saline", "result": "159 % of control"}, {"measurement": "T/C", "setting": "dose: 5.0 mg/kg/injection, schedule: Q01DX005 (ip), vehicle: saline", "result": "190 % of control and 267 % of control"}, {"measurement": "T/C", "setting": "dose: 10.0 mg/kg/injection, schedule: Q01DX005 (ip), vehicle: saline", "result": "116 % of control and 206 % of control"}]}, {"smiles": "CCCCCCCCCc1cc(=O)[nH]c(=S)[nH]1", "values": [{"measurement": "T/C", "setting": "dose: 15.0 mg/kg/injection, schedule: Q01DX005 (ip), vehicle: Klucel (hydroxypropylcellulose) (HPC)", "result": "99 % of control"}, {"measurement": "T/C", "setting": "dose: 30.0 mg/kg/injection, schedule: Q01DX005 (ip), vehicle: Klucel (hydroxypropylcellulose) (HPC)", "result": "102 % of control"}, {"measurement": "T/C", "setting": "dose: 60.0 mg/kg/injection, schedule: Q01DX005 (ip), vehicle: Klucel (hydroxypropylcellulose) (HPC)", "result": "90 % of control and 93 % of control"}, {"measurement": "T/C", "setting": "dose: 120.0 mg/kg/injection, schedule: Q01DX005 (ip), vehicle: Klucel (hydroxypropylcellulose) (HPC)", "result": "100 % of control"}]}, {"smiles": "O=C(O)c1ccc(NC(=O)C(Cl)Cl)cc1", "values": [{"measurement": "T/C", "setting": "[1]", "result": "97 % of control"}, {"measurement": "T/C", "setting": "[2]", "result": "102 % of control"}, {"measurement": "T/C", "setting": "[3]", "result": "100 % of control"}]}, {"smiles": "[N-]=[N+]=Nc1ccnc2cc(F)ccc12", "values": [{"measurement": "T/C", "setting": "[4]", "result": "96 % of control"}, {"measurement": "T/C", "setting": "[5]", "result": "104 % of control"}, {"measurement": "T/C", "setting": "[6]", "result": "95 % of control"}]}, {"smiles": "Cc1cccc(N=C(c2ccccc2)C2C(=O)c3ccccc3C2=O)c1", "values": [{"measurement": "T/C", "setting": "[7]", "result": "94 % of control"}, {"measurement": "T/C", "setting": "[8]", "result": "94 % of control"}, {"measurement": "T/C", "setting": "[9]", "result": "91 % of control"}]}, {"smiles": "Cc1[nH]c2c(N)cccc2c1C", "values": [{"measurement": "T/C", "setting": "[11]", "result": "97 % of control"}, {"measurement": "T/C", "setting": "[12]", "result": "90 % of control"}, {"measurement": "T/C", "setting": "[13]", "result": "88 % of control"}]}, {"smiles": "O=C(NN1C(=O)CSC1c1ccc(Cl)cc1Cl)c1ccncc1", "note": "(stereo unspecified)", "values": [{"measurement": "T/C", "setting": "dose: 25.0 mg/kg/injection, schedule: Q01DX005 (ip), vehicle: saline with Tween-80", "result": "101 % of control"}, {"measurement": "T/C", "setting": "[7]", "result": "98 % of control"}, {"measurement": "T/C", "setting": "[8]", "result": "93 % of control"}, {"measurement": "T/C", "setting": "[5]", "result": "100 % of control"}, {"measurement": "T/C", "setting": "[6]", "result": "90 % of control"}]}, {"smiles": "C[n+]1c(/C=C2/SC=C(c3ccccc3)S2)ccc2ccccc21", "values": [{"measurement": "T/C", "setting": "dose: 0.78 mg/kg/injection, schedule: Q04DX002 (ip), vehicle: saline with Tween-80", "result": "102 % of control and 119 % of control"}, {"measurement": "T/C", "setting": "dose: 1.56 mg/kg/injection, schedule: Q04DX002 (ip), vehicle: saline with Tween-80", "result": "109 % of control and 123 % of control"}, {"measurement": "T/C", "setting": "dose: 3.12 mg/kg/injection, schedule: Q04DX002 (ip), vehicle: saline with Tween-80", "result": "119 % of control"}]}, {"smiles": "CN1c2ccc(Cl)cc2C(=O)NC1c1ccc([N+](=O)[O-])s1", "note": "(stereo unspecified)", "values": [{"measurement": "T/C", "setting": "[11]", "result": "106 % of control"}, {"measurement": "T/C", "setting": "[12]", "result": "108 % of control"}, {"measurement": "T/C", "setting": "[13]", "result": "113 % of control"}, {"measurement": "T/C", "setting": "dose: 400.0 mg/kg/injection, schedule: Q01DX009 (ip), vehicle: saline with Tween-80", "result": "115 % of control"}]}]}
